Measurements reported in PMC6335354, “Chitosan Grafted With β-Cyclodextrin: Synthesis, Characterization, Antimicrobial Activity, and Role as Absorbefacient and Solubilizer” (Frontiers in Chemistry, 2019).
Converted amounts (≈) assume the structure as drawn. Structures can show the parent of a compound that is named as a salt. Where two headings read alike, the source gives them in different places.

Assays:
[1] = Aqueous solubility of sulfonamides (UV-Vis); conditions: thermodynamic from solid
Procedure: Aqueous solubility measurements were conducted according to the method of Wang and Wang ([2000]). […] The mixture was agitated until reaching equilibrium with water in the equilibrium cell and then kept for 30 min. A known amount of the upper layer of the mixture was removed from the equilibrium cell and diluted with distilled water. The calibration curve established by ultraviolet–visible spectrophotometry (UV–Vis) was used to determine the concentration of the solution.

[2] = physchem; conditions: for solubility at 2 h: 25 °C, aqueous with cosolvent or surfactant or cyclodextrin, thermodynamic from solid, solubility with CD-g-CS
Procedure: Acetic acid [1 mL, 1 % (v/v)] was used to dissolve 10 mg of CD-g-CS, and the pH of the solution was adjusted to be similar to that of the distilled water. […] A vortex mixer was used to mix the suspension followed by sonication for 20 min. The mixture was then stirred for 2 h at 25°C followed by the centrifugation of the suspension at 8,000 r/min for 10 min. The supernatant was filtered using a membrane with 0.45-μm pore size.

[3] = added 6 μg/mL (sulfamethoxazole 8 μg/mL)
Procedure: The stability test was performed by keeping the samples for 0h, 1h, 2h, 4h, 6h, 8h, 24h at room temperature before analysis. […] S2.

[4] = test system: S. xylosus; assay: Uptake of doxorubicin hydrochloride by CLSM; format: cell-based, Staphylococcus xylosus; conditions: 50 μmol/L doxorubicin hydrochloride, 2 mg/mL CD-g-CS, 30 min, 1 and 3 h
Procedure: Cultured S. xylosus in the logarithmic phase was mixed with 2 mg/mL CD-g-CS containing 50 μmol/L doxorubicin hydrochloride. The mixtures were incubated at 37°C for 30 min, 1 or 3 h. The mixtures of S. xylosus were then centrifuged, washed three times, and re-suspended in 500 μL PBS (pH = 7.2). Each sample with S. xylosus was placed on a glass slide and observed by confocal laser scanning microscopy (CLSM). S. xylosus treated with only doxorubicin hydrochloride for 30 min, 1 or 3 h served as the control.

[5] = test system: S. xylosus; assay: Uptake of doxorubicin hydrochloride by flow cytometry (FCS); format: cell-based, Staphylococcus xylosus; conditions: 50 μmol/L doxorubicin hydrochloride, CD-g-CS 0.5, 2, 5 mg/mL, 1 h, 37°C
Procedure: The cultured S. xylosus in the logarithmic phase were mixed with CD-g-CS (5, 2, or 0.5 mg/mL) containing 50 μmol/L doxorubicin hydrochloride. The mixtures were incubated at 37°C for 1 h. Subsequently, the S. xylosus solutions were centrifuged, washed three times with PBS (pH = 7.2), and resuspended in 500 μL PBS. For each sample, S. xylosus was sorted using a Flow Cytometry System (FCS). S. xylosus treated with only doxorubicin hydrochloride served as a control.

Row | solubility ([1]; distilled water) | solubility at 2 h [2] | Measured concentration ([3]; 0h at room temperature) | Measured concentration ([3]; 1h at room temperature) | Measured concentration ([3]; 2h at room temperature) | Measured concentration ([3]; 4h at room temperature) | Measured concentration ([3]; 6h at room temperature) | Measured concentration ([3]; 8h at room temperature) | Measured concentration ([3]; 24h at room temperature) | solubility ([1]; water) | solubility at 2 h ([2]; 10 mg/mL CD-g-CS solution, with 10 mg/mL CD-g-CS (QCD = 0.6 × 10^2 μmol/g)) | solubility at 2 h ([2]; 10 mg/mL CD-g-CS solution, with 10 mg/mL CD-g-CS (QCD = 0.643 × 10^3 μmol/g)) | solubility enhancement compared to the aqueous solution ([2]; with 10 mg/mL CD-g-CS (QCD = 0.6 × 10^2 μmol/g)) | solubility enhancement compared to the aqueous solution ([2]; with 10 mg/mL CD-g-CS (QCD = 0.643 × 10^3 μmol/g)) | Compound | uptake of doxorubicin hydrochloride (fluorescence intensity, CLSM) [4] | uptake of doxorubicin hydrochloride (fluorescence intensity, FCS) [5]
1 | 69 ± 1.59 µg/mL (≈ 246 µM) | 283 ± 13 µg/mL (≈ 1010 µM) | 6.09 ± 0.060 µg/mL | 6.09 ± 0.026 µg/mL | 5.93 ± 0.021 µg/mL | 6.12 ± 0.018 µg/mL | 5.88 ± 0.018 µg/mL | 6.12 ± 0.046 µg/mL | 6.13 ± 0.015 µg/mL | – | – | – | – | – | COc1cc(NS(=O)(=O)c2ccc(N)cc2)ncn1 [sulfamonomethoxine] | – | –
2 | – | – | – | – | – | – | – | – | – | – | – | – | – | – | COc1cccc2c1C(=O)c1c(O)c3c(c(O)c1C2=O)C[C@@](O)(C(=O)CO)C[C@@H]3O[C@H]1C[C@H](N)[C@H](O)[C@H](C)O1 [doxorubicin hydrochloride] | very weak | very low
3 | – | – | 5.98 ± 0.078 µg/mL | 6.04 ± 0.058 µg/mL | 6.13 ± 0.013 µg/mL | 5.89 ± 0.047 µg/mL | 5.95 ± 0.055 µg/mL | 6.14 ± 0.043 µg/mL | 6.02 ± 0.054 µg/mL | 26 ± 1.68 µg/mL (≈ 104 µM) | 147 ± 7.05 µg/mL (≈ 587 µM) | 236 ± 4.25 µg/mL (≈ 943 µM) | approximately 5.6 times | 9.1 times | Nc1ccc(S(=O)(=O)Nc2ncccn2)cc1 [sulfadiazine] | – | –
